Source: patent publication US20250041380A1, “R[…] FOR SARS-COV2 DISEASE” (priority 2021, published 2025)
Where two headings read alike, the source gives them in different places.

What was measured:
Cathepsin L = molecular target: T1, Cathepsin L (Homo sapiens, UniProt P07711); type: biochemical
T1 construct: purchased

DPP4 = molecular target: T2, DPP4 (Homo sapiens, UniProt P27487); type: biochemical
T2 construct: purchased
T2 sequence (P27487 whole entry): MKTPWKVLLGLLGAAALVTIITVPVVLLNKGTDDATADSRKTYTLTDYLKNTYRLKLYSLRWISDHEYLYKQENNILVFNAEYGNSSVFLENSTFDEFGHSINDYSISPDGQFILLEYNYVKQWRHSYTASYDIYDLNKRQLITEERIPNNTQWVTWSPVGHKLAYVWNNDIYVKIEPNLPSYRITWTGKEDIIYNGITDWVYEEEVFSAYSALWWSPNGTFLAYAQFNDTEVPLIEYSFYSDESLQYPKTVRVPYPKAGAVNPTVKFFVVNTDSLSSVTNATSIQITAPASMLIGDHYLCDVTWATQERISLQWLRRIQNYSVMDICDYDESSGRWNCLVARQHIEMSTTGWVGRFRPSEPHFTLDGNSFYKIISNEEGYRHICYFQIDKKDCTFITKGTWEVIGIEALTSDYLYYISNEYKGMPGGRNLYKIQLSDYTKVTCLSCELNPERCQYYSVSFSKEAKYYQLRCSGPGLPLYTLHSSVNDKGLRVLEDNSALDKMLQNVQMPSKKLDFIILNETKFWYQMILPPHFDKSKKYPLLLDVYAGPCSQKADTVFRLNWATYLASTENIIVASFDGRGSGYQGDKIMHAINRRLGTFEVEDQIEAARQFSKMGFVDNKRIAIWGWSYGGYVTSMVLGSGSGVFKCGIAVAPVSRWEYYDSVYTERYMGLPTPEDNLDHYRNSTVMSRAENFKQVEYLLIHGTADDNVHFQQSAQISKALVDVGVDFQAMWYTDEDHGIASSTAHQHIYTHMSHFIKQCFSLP

T1 sequence (P07711 114-333): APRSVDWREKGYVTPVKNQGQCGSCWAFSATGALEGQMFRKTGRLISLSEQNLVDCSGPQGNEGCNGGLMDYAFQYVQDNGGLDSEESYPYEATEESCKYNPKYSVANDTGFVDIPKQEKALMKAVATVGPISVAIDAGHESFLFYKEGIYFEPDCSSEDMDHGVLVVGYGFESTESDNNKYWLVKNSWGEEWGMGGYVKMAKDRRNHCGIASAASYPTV

CC(C)C[C@H](NC(=O)[C@H]1O[C@@H]1C(=O)O)C(=O)NCCCCN=C(N)N [E-64]
% Inhibition wrt Enzyme Control (Cathepsin L; 0.0001 μM): 7.4% | % Inhibition wrt Enzyme Control (Cathepsin L; 0.01 μM): 24.2% | % Inhibition wrt Enzyme Control (Cathepsin L; 0.1 µM): 61.0%

CC(C)C[C@H](NC(=O)OCc1ccccc1)C(=O)N[C@@H](C[C@@H]1CCNC1=O)C(O)S(=O)(=O)[O-].[Na+] (stereo partly shown) [GC376]
% Inhibition wrt Enzyme Control (DPP4; 0.001 μM): 32.4% | % Inhibition wrt Enzyme Control (DPP4; 0.01 μM): 76.2% | % Inhibition wrt Enzyme Control (DPP4; 0.1 µM): 87.1% | % Inhibition wrt Enzyme Control (DPP4; 1 µM): 99.5%
